# Patent publication US5744492A, “Method for inhibiting angiogenesis” (United States of America, priority 1994, dated 1998)
# Key:
# [1] = system: chick chorioallantoic membrane; assay: Chick chorioallantoic membrane (CAM) angiogenesis assay; type: in vivo; conditions: 48 hr
# Procedure: The chick chorioallantoic or yolk sac membrane (CAM) assays for angiogenesis are important in vivo models of microvessel formation. […] Briefly, fertilized chick embryos with the yolk intact were removed from their shells on day 3 of development and incubated at 37° C.
# [2] = system: bFGF receptor; assay: bFGF-induced tyrosine phosphorylation in HUVECs (phosphotyrosine immunoprecipitation and Western analysis); type: cell-based, human; conditions: 10 μM
# Procedure: Human umbilical vein endothelial cells (H 930) were generously supplied by Dr. Tom Maciag, American Red Cross (Gaithersburg, Md., USA) and were used between passages 9 and 14 to avoid senescence. HUVECs were grown on fibronectin-coated tissue culture plastic (200 μg/150 mm dish) in complete medium (Medium 199 (M-199) containing 5 U/mL preservative-free heparin, 25.5 μg/mL ECGS, 10% fetal bovine serum and 100 U/mL penicillin, 100 μg/mL streptomycin, and 0.25 μg/mL fungizone).
# It exerts its activity through activation of the bFGF receptor kinase with subsequent autophosphorylation of its receptor as well as phosphorylation of other signaling proteins. See, Jaye, et al., Biochim. Biophys. Acta 1135:185-199 (1992). Phosphotyrosine immunoprecipitation and Western analysis were used to investigate the effect of compound 1 on bFGF-mediated tyrosine phosphorylation.
# The following day, cells were exposed to bFGF, 10 ng/mL for 15 min at 37° C. Cells were quickly washed with cold DPBS, scraped from the plate and lysed with lysis buffer (50 mM Tris-HCl pH 7.6, 300 mM NaCl, 10 μg/mL aprotinin, 1 mM phenylmethylsulphonylfluoride (PMSF), 400 μM sodium orthovanadate, 400 μM EDTA, 100 mM sodium fluoride, 100 mM sodium pyrophosphate, and 0.5% Triton-X 100) for 1 hr on ice. The lysates were centrifuged at 4° C. at 1200×g for 15 minutes after which the supernatants were saved and protein concentration determined using bicinchoninic assay protein detection method. Aliquots of lysis protein ([…] per sample) were incubated with 10 μg of anti-phosphotyrosine monoclonal antibody, 4G10, pre-conjugated to protein A-sepharose beads for 1 hr at 4° C. The beads were washed three times with buffer containing 0.1% Triton X-100 and then the immunoprecipitated proteins were eluted with 2X Laemmli sample buffer and subjected to 4-12% gradient gel electrophoresis. Proteins were transferred electrically, blocked (7.5% glycine, 5% dry milk, 1% ovalbumin) for 30 min at room temperature, then washed (0.001% ovalbumin, 0.001% dry milk, 0.001% Tween-20 in phosphate-buffered saline (PBS)). […]
smiles,measurement,setting,value
"NC(=O)c1nnn(Cc2cc(Cl)c(C(=O)c3ccc(Cl)cc3)c(Cl)c2)c1N [Compound 1, 5-amino-1-(4-(4-chlorobenzoyl)-3,5-dichlorobenzyl)1,2,3-triazole-4-carboxamide]",% Inhibition (capillary formation in vivo),[1]; 10 μM,55%
same,Eggs with avascular zones/total,[1]; 10 μM,19/34
same,embryos with large avascular zone,[1]; 10 μM,55%
same,% Inhibition (capillary formation in vivo),[1]; 20 μM,67%
same,Eggs with avascular zones/total,[1]; 20 μM,20/30
same,embryos with large avascular zone,[1]; 20 μM,67%
same,angiogenesis inhibitory effect (in words),[1]; 10 or 20 μM,dose-dependent
same,effect on bFGF-stimulated tyrosine phosphorylation (in words),"[2]; 18 hr, bFGF 10 ng/mL for final 15 minutes",inhibition of bFGF-stimulated phosphorylation
same,"effect on bFGF-stimulated tyrosine phosphorylation, including autophosphorylation of bFGF receptor (in words)",[2]; bFGF 10 ng/mL,blocked bFGF-stimulated tyrosine phosphorylation
same,effect on basal tyrosine phosphorylation (in words),[2]; no bFGF,"Neither DMSO control (lane 1) or compound 1 (10 μM, lane 2) altered basal tyrosine phosphorylation"
